How the values were obtained:
Assay type in all cases: in vivo, male C57BL/6 mice
CFA-injected mice [1] = assay: plantar test (thermal hyperalgesia) in CFA-induced chronic inflammatory pain; conditions: for Thermal hyperalgesia Withdrawal latency: mean ± SEM, n=6; for reversal of the antihyperalgesic effects produced by 150 µg of DPDPE / reversal of the antihyperalgesic (antinociceptive) effects produced by 300 µg of JWH-015: subplantar coadministration; for reversal of the antihyperalgesic effects produced by 150 µg of DPDPE: P < 0.001
Experimental: (§1) The experiments were performed in male C57BL/6 mice acquired from Harlan Laboratories (Barcelona, Spain). All mice weighing 21 to 25 g were housed under 12-h/12-h light/ dark conditions in a room with controlled temperature (22° C) and humidity (66%). Animals had free access to food and water and were used after a minimum of 7 days acclimatization to the housing conditions. All experiments were performed according with the Guide for the Care and Use of Laboratory Animals as adopted and promulgated by the U.S. National Institutes of Health and approved by the local Committee of Animal Use and Care of the Autonomous University of Barcelona. All efforts were made to minimize animal suffering and to reduce the number of animals used.
(§2) Chronic inflammatory pain was induced by the subplantar injection of 30 µl of CFA (Sigma) into the right hind paw under brief anesthetic conditions with isoflurane according to previous works (Leánez et al., Eur J Pharmacol, 2009, 602:41-49; Hervera et al., Naunyn Schmiedebergs Arch Pharmacol, 2009, 380:345-352). All experiments were performed at 10 days after CFA injection. At this time point, all of these animals developed a local inflammatory reaction, allodynia to mechanical stimuli and hyperalgesia to noxious thermal stimuli, as previously reported (Negrete et al., PLoS One, 2011, 6:e26688). The development of mechanical allodynia and thermal hyperalgesia was evaluated by using the von Frey filaments and plantar tests, respectively. All animals were tested in each paradigm before and at 10 days after CFA-injection.
Thermal hyperalgesia was assessed as previously reported by Hargreaves et al. (Pain, 1988, 32:77-88). Paw withdrawal latency in response to radiant heat was measured using the plantar test apparatus (Ugo Basile, Varese, Italy). Briefly, mice were placed in methacrylate cylinders (20 cm high x 9 cm diameter) positioned on a glass surface. The heat source was positioned under the plantar surface of the hind paw and activated with a light beam intensity, chosen in preliminary studies to give baseline latencies from 8 to 10 s in control mice. A cut-off time of 12 s was used to prevent tissue damage in absence of response. The mean paw withdrawal latencies from the ipsilateral and contralateral hind paws were determined from the average of three separate trials, taken at 5 min intervals to prevent thermal sensitization and behavioral disturbances. Animals were habituated to the environment for 1 h before the experiment to become quiet and to allow testing. […]
In another set of experiments, we evaluated the mechanical antiallodynic and thermal antihyperalgesic effects produced by the subplantar administration of 290 µg of SnPP alone or combined with the subplantar administration of a high dose of DPDPE (150 µg) or JWH-015 (300 µg) in the contralateral and ipsilateral paw of CFA-injected animals (n = 6 animals per group).
The reversibility of the antinociceptive effects produced by the subplantar administration of DPDPE (150 µg) or JWH-015 (300 µg), as doses that produce the maximal antiallodynic and antihyperalgesic effects after peripheral inflammation, by their subplantar coadministration with specific (naltrindole; 50 µg; AM630; 60 µg) and an unspecific peripheral opioid antagonist (naloxone methiodide, NX-ME; 50 µg) or a cannabinoid 1 receptor (CB1R) antagonist (AM251; 150 µg) (Hervera et al., J Pharmacol Exp Ther, 2010, 334: 887-896; Hervera et al., Mol Pain, 2011, 7:25) was also evaluated (n = 6 animals per group). The doses of all tested opioid and cannabinoid receptor antagonists were selected according to our previous data in animals with chronic pain (Hervera et al., Naunyn Schmiedebergs Arch Pharmacol, 2009, 380:345-352; Hervera et al., Psychopharmacology, 2013, 228:463-477; Negrete et al., PLoS One, 2011, 6:e26688).
CoPP and SnPP were dissolved in DMSO (1 % solution in saline). JWH-015, AM630, AM251 were dissolved in DMSO (50 % solution in saline). […]

CFA-injected mice [2] = assay: von Frey filaments test (mechanical allodynia) in CFA-induced chronic inflammatory pain; conditions: for Mechanical allodynia von Frey filaments strength / Mechanical allodynia, Experimental results (%) (maximal possible effect): ipsilateral paw; for Mechanical allodynia von Frey filaments strength: mean ± SEM, n=6; for reversal of the antiallodynic effects produced by 150 µg of DPDPE / reversal of the antiallodynic (antinociceptive) effects produced by 300 µg of JWH-015: subplantar coadministration; for reversal of the antiallodynic effects produced by 150 µg of DPDPE: P < 0.001; for Mechanical allodynia, Experimental results (%) (maximal possible effect): CoPP 10 mg/kg intraperitoneal
Experimental: as §1, §2
Mechanical allodynia was quantified by measuring the hind paw withdrawal response to von Frey filament stimulation. In brief, animals were placed in methacrylate cylinders (20 cm high, 9 cm diameter; Servei Estació, Barcelona, Spain) with a wire grid bottom through which the von Frey filaments (North Coast Medical, Inc., San Jose, CA) with a bending force in the range of 0.008-3.5 g were applied by using a modified version of the up-down paradigm, as previously reported by Chaplan et al. (J Neurosci Methods, 1994, 53:55-63). The filament of 0.4 g was used first and the 3.0 g filament was used as a cut-off. Then, the strength of the next filament was decreased or increased according to the response. The threshold of response was calculated from the sequence of filament strength used during the up-down procedure by using an Excel program (Microsoft Iberia SRL, Barcelona, Spain) that includes curve fitting of the data. Clear paw withdrawal, shaking, or licking of the paw was considered as a nociceptive-like response. Both ipsilateral and contralateral hind paws were tested. Animals were allowed to habituate for 1 h before testing in order to allow an appropriate behavioral immobility.
In a first set of experiments, we assessed the expression of inflammatory pain induced by the subplantar administration of CFA as previously used (Leánez et al., Eur J Pharmacol, 2009, 602:41-49). After the habituation period, baseline responses were established in the following sequence: von Frey filaments and plantar test. After baseline measurements, inflammatory pain was induced and animals were again tested in each paradigm at day 10 after CFA injection by using the same sequence as for baseline responses. The contralateral paws were used as controls (n = 6 animals per group).
In a second set of experiments, we evaluated the mechanical antiallodynic and thermal antihyperalgesic effects of the subplantar administration of different doses of a specific DOR (DPDPE) or CB2R (JWH-015) agonist and their respective vehicles in the contralateral and ipsilateral paw of CFA-injected animals (n = 6 animals per group). […]

CFA-injected mice [3] = assay: plantar test (thermal hyperalgesia) in CFA-induced chronic inflammatory pain
Experimental: as §1
Chronic inflammatory pain was induced by the subplantar injection of 30 µl of CFA (Sigma) into the right hind paw under brief anesthetic conditions with isoflurane according to previous works (Leánez et al., Eur J Pharmacol, 2009, 602:41-49; Hervera et al., Naunyn Schmiedebergs Arch Pharmacol, 2009, 380:345-352). All experiments were performed at 10 days after CFA injection. […] The development of mechanical allodynia and thermal hyperalgesia was evaluated by using the von Frey filaments and plantar tests, respectively. […]
Thermal hyperalgesia was assessed as previously reported by Hargreaves et al. (Pain, 1988, 32:77-88). Paw withdrawal latency in response to radiant heat was measured using the plantar test apparatus (Ugo Basile, Varese, Italy). […] The mean paw withdrawal latencies from the ipsilateral and contralateral hind paws were determined from the average of three separate trials, taken at 5 min intervals to prevent thermal sensitization and behavioral disturbances. […]
In a first set of experiments, we assessed the expression of inflammatory pain induced by the subplantar administration of CFA as previously used (Leánez et al., Eur J Pharmacol, 2009, 602:41-49). […]

[4] = Table 7, DOR agonist, ipsilateral paw, subplantar DPDPE 150 µg, naltrindole 50 µg, NX-ME 50 µg, vehicle+vehicle 3.4 ± 0.5
[5] = Table 7, DOR agonist, subplantar DPDPE 150 µg, naltrindole 50 µg, NX-ME 50 µg, vehicle+vehicle 1.3 ± 0.1
[6] = Table 7, CB2R agonist, ipsilateral paw, subplantar JWH-015 300 µg, AM630 60 µg, AM251 150 µg, vehicle+vehicle 3.8 ± 0.3
[7] = Table 7, CB2R agonist, subplantar JWH-015 300 µg, AM630 60 µg, AM251 150 µg, vehicle+vehicle 1.4 ± 0.1

`C=Cc1c(C)c2cc3[nH]c(cc4nc(cc5nc(cc1[nH]2)C(C)=C5CCC(=O)[O-])C(CCC(=O)[O-])=C4C)c(C)c3C=C.[Cl-].[Cl-].[Sn+4]` [SnPP, tin (IV) protoporphyrin IX dichloride] was tested, and the “effect of SnPP coadministration on the local antihyperalgesic effects of DPDPE” value (CFA-injected mice [1]; SnPP 290 µg + DPDPE 150 µg subplantar, P < 0.001 (Fig. 5B)) was “significantly decreased”, the “effect of SnPP coadministration on the local antihyperalgesic effects of JWH-015” value (CFA-injected mice [1]; SnPP 290 µg + JWH-015 300 µg subplantar, P < 0.001 (Fig. 5B)) was “significantly decreased” and the “thermal hyperalgesia induced by peripheral inflammation” value (CFA-injected mice [1]; SnPP alone 290 µg subplantar (Fig. 5B)) was “did not alter”. For the same compound, the “effect of SnPP coadministration on the local antiallodynic effects of DPDPE” value (CFA-injected mice [2]; SnPP 290 µg + DPDPE 150 µg subplantar, P < 0.001 (Fig. 5A)) was “significantly decreased”, the “effect of SnPP coadministration on the local antiallodynic effects of JWH-015” value (CFA-injected mice [2]; SnPP 290 µg + JWH-015 300 µg subplantar, P < 0.001 (Fig. 5A)) was “significantly decreased” and the “mechanical allodynia induced by peripheral inflammation” value (CFA-injected mice [2]; SnPP alone 290 µg subplantar (Fig. 5A)) was “did not alter”.

`Oc1ccc2c3c1O[C@H]1c4[nH]c5ccccc5c4C[C@@]4(O)[C@@H](C2)N(CC2CC2)CC[C@]314` [Naltrindole, naltrindole] was tested, and the “Thermal hyperalgesia Withdrawal latency” value (CFA-injected mice [1]; [4]) was 3.4 ± 0.6 s, the “reversal of the antihyperalgesic effects produced by 150 µg of DPDPE” value (CFA-injected mice [1]; naltrindole 50 µg, NX-ME 50 µg) was “completely reversed” and the “Mechanical allodynia von Frey filaments strength” value (CFA-injected mice [2]; [5]) was 1.3 ± 0.1 g. The “reversal of the antiallodynic effects produced by 150 µg of DPDPE” value (CFA-injected mice [2]; naltrindole 50 µg, NX-ME 50 µg) was “completely reversed”.

In the case of `C=CC[N+]1(C)CC[C@]23c4c5ccc(O)c4O[C@H]2C(=O)CC[C@@]3(O)[C@H]1C5` (some centres unmarked) [NX-ME, naloxone methiodide], the “Thermal hyperalgesia Withdrawal latency” value (CFA-injected mice [1]; [4]) is reported as 3.6 ± 0.5 s, the “reversal of the antihyperalgesic effects produced by 150 µg of DPDPE” value (CFA-injected mice [1]; naltrindole 50 µg, NX-ME 50 µg) is reported as “completely reversed” and the “Mechanical allodynia von Frey filaments strength” value (CFA-injected mice [2]; [5]) is reported as 1.2 ± 0.1 g. The “reversal of the antiallodynic effects produced by 150 µg of DPDPE” value (CFA-injected mice [2]; naltrindole 50 µg, NX-ME 50 µg) was “completely reversed”.

For `Cc1c(C(=O)NN2CCCCC2)nn(-c2ccc(Cl)cc2Cl)c1-c1ccc(I)cc1` [AM251, N-(piperidin-1-yl)-5-(4-iodophenyl)-1-(2,4-dichlorophenyl)-4-methyl-1 H-pyrazole-3-carboxamide], the “Thermal hyperalgesia Withdrawal latency” value (CFA-injected mice [1]; [6]) was 3.6 ± 0.4 s, the “reversal of the antihyperalgesic (antinociceptive) effects produced by 300 µg of JWH-015” value (CFA-injected mice [1]; AM630 60 µg, AM251 150 µg) was “unable to revert” and the “Mechanical allodynia von Frey filaments strength” value (CFA-injected mice [2]; [7]) was 1.4 ± 0.1 g. For the same compound, the “reversal of the antiallodynic (antinociceptive) effects produced by 300 µg of JWH-015” value (CFA-injected mice [2]; AM630 60 µg, AM251 150 µg) was “unable to revert”.

For `CCCn1c(C)c(C(=O)c2cccc3ccccc23)c2ccccc21` [JWH-015, (2-Methyl-1-propyl-1H-indol-3-yl)-1-naphthalenylmethanone], the “Thermal hyperalgesia, Experimental results (%) (maximal possible effect)” value (CFA-injected mice [1]; Table 6, ipsilateral paw, CoPP 10 mg/kg intraperitoneal, JWH-015 30 µg subplantar, vehicle 4.9) was 7.4%, the “Thermal hyperalgesia Withdrawal latency” value (CFA-injected mice [1]; [6]) was 9.2 ± 0.2 s and the “Mechanical allodynia, Experimental results (%) (maximal possible effect)” value (CFA-injected mice [2]; Table 6, JWH-015 30 µg subplantar, vehicle 4.1) was 7.5%. The “Mechanical allodynia von Frey filaments strength” value (CFA-injected mice [2]; [7]) was 2.5 ± 0.2 g.

“[2-D-penicillamine,5-D-penicillamine]-enkephalin [DPDPE]” was tested, and the “Thermal hyperalgesia, Experimental results (%) (maximal possible effect)” value (CFA-injected mice [3]; Table 5, ipsilateral paw, CoPP 10 mg/kg intraperitoneal, DPDPE 50 µg subplantar, vehicle 4.0) was 16.0%, the “Thermal hyperalgesia Withdrawal latency” value (CFA-injected mice [3]; Table 7, DOR agonist, ipsilateral paw, subplantar DPDPE 150 µg, naltrindole 50 µg, NX-ME 50 µg, vehicle+vehicle 3.4 ± 0.5, mean ± SEM, n=6) was 9.2 ± 0.7 s and the “thermal hyperalgesia induced by peripheral inflammation” value (CFA-injected mice [3]; subplantar administration, DPDPE 50-150 µg, JWH-015 30-300 µg (Fig. 1B, 2B)) was “dose-dependently inhibited”. For the same compound, the “Mechanical allodynia, Experimental results (%) (maximal possible effect)” value (CFA-injected mice [2]; Table 5, DPDPE 50 µg subplantar, vehicle 5.8) was 11.8%, the “Mechanical allodynia von Frey filaments strength” value (CFA-injected mice [2]; [5]) was 2.4 ± 0.1 g and the “mechanical allodynia induced by peripheral inflammation” value (CFA-injected mice [2]; subplantar administration, DPDPE 50-150 µg, JWH-015 30-300 µg (Fig. 1A, 2A)) was “dose-dependently inhibited”.

For `COc1ccc(C(=O)c2c(C)n(CCN3CCOCC3)c3cc(I)ccc23)cc1` [AM630], the “Thermal hyperalgesia Withdrawal latency” value (CFA-injected mice [1]; [6]) was 3.7 ± 0.2 s, the “reversal of the antihyperalgesic (antinociceptive) effects produced by 300 µg of JWH-015” value (CFA-injected mice [1]; AM630 60 µg, AM251 150 µg) was “completely reversed” and the “Mechanical allodynia von Frey filaments strength” value (CFA-injected mice [2]; [7]) was 1.3 ± 0.1 g. The “reversal of the antiallodynic (antinociceptive) effects produced by 300 µg of JWH-015” value (CFA-injected mice [2]; AM630 60 µg, AM251 150 µg) was “completely reversed”.
